# Data taken from ChEMBL document CHEMBL5550130, “Discovery of harmiprims, harmine-primaquine hybrids, as potent and selective anticancer and antimalarial compounds” (Bioorg Med Chem, 2024).
# Active and inactive are the calls of the source. The calls are words filed in the database; no cut-off is given here.
# Tests used:
# [1] = test system: SW-620; assay: Antiproliferative activity against human SW620 cells assessed as reduction in cell viability incubated for 72 hrs by MTT assay; assay type: functional, cell-based; details: SW-620, 72 h
# [2] = test system: HepG2; assay: Antiproliferative activity against human HepG2 cells assessed as reduction in cell viability incubated for 72 hrs by MTT assay; assay type: functional, cell-based; details: HepG2, 72 h
# [3] = test system: HCT-116; assay: Antiproliferative activity against human HCT-116 cells assessed as reduction in cell viability incubated for 72 hrs by MTT assay; assay type: functional, cell-based; details: HCT-116, 72 h
# [4] = test system: MCF7; assay: Antiproliferative activity against human MCF7 cells assessed as reduction in cell viability incubated for 72 hrs by MTT assay; assay type: functional, cell-based; details: MCF7, 72 h
# [5] = Antiproliferative activity against human HEK293T cells assessed as reduction in cell viability incubated for 72 hrs by MTT assay; assay type: toxicity, cell-based, HEK-293T
# [6] = Selectivity index, ratio of IC50 for antiproliferative activity against human HEK293T cells to IC50 for antiproliferative activity against human MCF7 cells; assay type: toxicity, cell-based; details: HEK293T cells versus MCF7 cells, read-out: Ratio IC50
# [7] = test system: Calf thymus DNA; assay: Binding affinity to calf thymus DNA assessed as binding constant by UV-Visible absorption spectroscopic analysis; details: Bos taurus
# [8] = test system: RNA; assay: Binding affinity to double stranded RNA (unknown origin) assessed as binding constant by UV-Visible absorption spectroscopic analysis; assay type: nucleic-acid assay
# [9] = test system: Plasmodium falciparum; assay: Antiplasmodial activity against erythrocytic stage of chloroquine-sensitive Plasmodium falciparum 3D7 assessed as inhibition of parasite growth incubated for 3 days by HRP2-ELISA; assay type: functional, organism-based; details: 3D7, 72 h
# [10] = test system: Plasmodium falciparum; assay: Antiplasmodial activity against erythrocytic stage of chloroquine-resistant Plasmodium falciparum Dd2 assessed as inhibition of parasite growth incubated for 3 days by HRP2-ELISA; assay type: functional, organism-based; details: Dd2, 72 h
# [11] = Selectivity index, ratio of IC50 for antiproliferative activity against human HEK293T cells to IC50 for antiplasmodial activity against erythrocytic stage of chloroquine-sensitive Plasmodium falciparum 3D7; assay type: toxicity, cell-based; details: read-out: Ratio IC50
# [12] = test system: Calf thymus DNA; assay: Binding affinity to calf thymus DNA assessed as thermal stabilization by thermal denaturation based UV-Visible absorption spectroscopic analysis; details: Bos taurus
# [13] = test system: Plasmodium falciparum; assay: Resistance index, ratio of IC50 for antiplasmodial activity against erythrocytic stage of chloroquine-resistant Plasmodium falciparum Dd2 to IC50 for antiplasmodial activity against erythrocytic stage of chloroquine-sensitive Plasmodium falciparum 3D7; assay type: functional
# [14] = test system: RNA; assay: Binding affinity to double stranded RNA (unknown origin) assessed as thermal stabilization by thermal denaturation based UV-Visible absorption spectroscopic analysis; assay type: nucleic-acid assay
# [15] = test system: dsDNA; assay: Binding affinity to double stranded DNA (unknown origin) by CD spectroscopic analysis; assay type: nucleic-acid assay
# [16] = test system: RNA; assay: Binding affinity to double stranded RNA (unknown origin) by CD spectroscopic analysis; assay type: nucleic-acid assay
# [17] = Drug uptake in human MCF7 cells at 10 uM incubated for 30 mins by fluorescence microscopic analysis; assay type: ADME, cell-based; details: mcf7, 0.5 h
# [18] = test system: MCF7; assay: Induction of cell cycle arrest in human MCF7 cells assessed as increase in accumulation of cells at G1 phase at 4.5 uM measured upto 48 hrs by propidium iodide/RNAse A staining based cell sorter analysis; assay type: functional
# [19] = test system: MCF7; assay: Induction of cell cycle arrest in human MCF7 cells assessed as increase in accumulation of cells at G2/M phase at 4.5 uM measured upto 48 hrs by propidium iodide/RNAse A staining based cell sorter analysis; assay type: functional
# [20] = test system: Plasmodium berghei; assay: Antiplasmodial activity against hepatic stage of Plasmodium berghei sporozoites infected in human Huh-7 cells assessed as reduction in parasite growth at 1 uM incubated for 1 hr by bioluminescence assay; assay type: functional, organism-based
# [21] = test system: Plasmodium berghei; assay: Antiplasmodial activity against hepatic stage of Plasmodium berghei sporozoites infected in human Huh-7 cells assessed as reduction in parasite growth at 10 uM incubated for 1 hr by bioluminescence assay; assay type: functional, organism-based
# [22] = test system: Plasmodium berghei; assay: Antiplasmodial activity against hepatic stage of Plasmodium berghei sporozoites infected in human Huh-7 cells assessed as inhibition of parasite growth incubated for 1 hr by bioluminescence assay; assay type: functional, organism-based; details: Huh-7, 1 h
# [23] = test system: dsDNA; assay: Binding affinity to double stranded DNA (unknown origin) assessed as increase in fluorescence intensity by fluorescence quenching analysis; assay type: nucleic-acid assay
# [24] = test system: RNA; assay: Binding affinity to double stranded RNA (unknown origin) assessed as increase in fluorescence intensity by fluorescence quenching analysis; assay type: nucleic-acid assay
# [25] = test system: Plasmodium falciparum; assay: Gametocytocidal activity against gametocytes of Plasmodium falciparum NF54 assessed as inhibition of ATP production measured after 48 hrs by Bac-TiterGlo analysis; assay type: functional, organism-based; details: NF54, 48 h
SMILES,IC50 [1] [µM],IC50 [2] [µM],IC50 [3] [µM],IC50 [4] [µM],IC50 at 72 h [5] [µM],selectivity ratio [6],IC50 [9] [µM],IC50 [10] [µM],selectivity ratio [11],Ratio IC50 [13],further results
COc1cc(NC(C)CCCn2cc(Cn3c4cc(OC)ccc4c4ccnc(C)c43)nn2)c2ncccc2c1 (configuration not stated),> 50,> 50,23.2,8.93,> 50,> 5.6,0.523,0.906,> 95.5,1.73,log Ks [7]: 5.5; log Ks [8]: 4.6; Activity [12]: inactive; Activity [14]: inactive; Activity [15]: inactive; Activity [16]: inactive; Drug uptake [17]: Active; Activity [18]: Active; Activity [19]: inactive; Activity [20]: Active; Activity [21]: Active; IC50 [22]: 1.46 µM; Activity [23]: Active; Activity [24]: Active
COc1cc(NC(C)CCCNC(=O)NCc2cc3c([nH]c4ccccc43)c(C)n2)c2ncccc2c1 (configuration not stated),25,> 50,27.2,11.7,> 50,> 4.29,2.4,2.35,> 20.8,0.98,
CN(C)c1ccc2nc3ccc(N(C)C)cc3[s+]c2c1 [METHYLENE BLUE ANHYDROUS],,,,,,,,,,,IC50 [25]: 0.506 µM
COc1cc(NC(C)CCCN)c2ncccc2c1 (configuration not stated) [PRIMAQUINE],9.2,,20.8,26.6,37.6,1.42,4.87,5.45,7.7,1.12,
COc1cc(NC(C)CCCn2cc(-c3nccc4c3[nH]c3ccccc34)nn2)c2ncccc2c1 (configuration not stated),14.1,> 50,10.2,> 50,25.3,< 0.51,2.52,4.48,10,1.77,
COc1cc(NC(C)CCCn2cc(-c3cc4c([nH]c5ccccc54)c(C)n3)nn2)c2ncccc2c1 (configuration not stated),15.8,> 50,18.3,14.5,> 50,> 3.46,0.857,0.632,> 58.3,0.74,
O=c1[nH]cc(F)c(=O)[nH]1 [FLUOROURACIL],,5.46,14.4,23.9,17.6,0.74,,,,,
COc1ccc2c(c1)[nH]c1c(C)nccc12 [HARMINE],7.32,14.9,7.64,,21,1.55,,> 27.7,2.5,>3.36,
